System: B6 normal mice
Assay: Fluorescence spectrometry tissue distribution of Cy5.5-labelled substances
Format: in vivo
Settings: 24 hours after administration, Cy5.5 label
Description: Next, the present inventors performed an experiment in B6 normal mice in order to observe the distribution in each tissue and organ according to the administration of a bispecific fusion protein according to an embodiment of the present invention. Cy5.5 was used as a fluorophore for tracking the distribution after administration of each substance. Buffer exchange was performed for each substance to be administered, MG12-1, MG12-4, and GLP-1Fc homodimer with boric acid buffer (pH 8.5), and with reference to the protocol of the Cy5.5 labeling kit (GE, #PA15605) were allowed to react with an appropriate amount of Cy5.5 overnight under refrigeration conditions. Unreacted Cy5.5 in the reaction-completed substance was removed through the PBS substitution process, and whether Cy5.5 was reacted well was confirmed through the final SDS-PAGE. Each administered substance was diluted with 10% DMSO/PBS to have the same fluorescence intensity using an ELISA plate reader capable of measuring fluorescence intensity before being administered.

Cy5.5 [reference compound]
0: Average fluorescence intensity, Brain | Average fluorescence intensity, Large intestine | Average fluorescence intensity, Small intestine
